In series [1] the test system is supported morphine antibodies. As to the kind of experiment: Binding of free radical labeled morphine to supported morphine antibodies (ESR). The following applies: pH 8 borate buffer, 10^-4 M label, 2 hours. Details: species or system rabbit.
Series [2] can be described thus: Storage stability of the cocaine assay spin label (binding constant). Conditions: storage in distilled water, substantially metal ion free, carbon dioxide bubbled through. The series is classed as physicochemical. The procedure: The spin labeled compound employed was prepared according to Example 7.1.
A further series has as its system dinitrophenyl antibodies. Kind of series: Spin immunoassay with labeled dinitrophenyl hapten and dinitrophenyl antibodies (ESR). It counts as binding. The following applies: increasing amounts, 10^-5 M solution in water, maximum 14 μl. The method, then: (The antibodies were prepared according to Eisen, et al., JACS, 75, 4583 (1953) and the labeled hapten was prepared in accordance with Hsia, et al, Archives of Biochemistry and Biophysics 132, 466 (1969)). The following procedure was employed. The quantities of the two compounds were chosen by adding small portions of the haptens to the antibody solution until the ESR signal intensity began to rise sharply with addition of each portion. At this point, all the binding sites on the antibodies were occupied by the label and the addition was stopped. Increasing amounts of N-epsilon-dinitrophenyllysine were then added to the solution.
The labeled hapten was dissolved in 20 percent aq. methanol at about 1-2 × 10^-^5 M concentration. Approximately 10 μl of the antibody solution and 10-20 μl of the labeled hapten solution were combined and varying amounts of 10^-^5 M solution of N-epsilon-dinitrophenyllysine in water added, the maximum being 14 μl.
By using appropriate standards, the ESR signal intensity may be related to the concentration of the N-epsilon dinitrophenyllysine in solution. Therefore, by taking an unknown solution suspected of having such a hapten, and introducing a standardized amount of the antibody-hapten complex, one can rapidly determine the concentration of the N-epsilon dinitrophenyllysine in solution.

The subject of a further series is phenobarbital antibody. As to the kind of experiment: Phenobarbital spin immunoassay. The following applies: 1 × 10^-5 M (2.2-2.6 μg/ml), pH 7, 10 µM.
The next series relates to secobarbital antibody. As to the kind of experiment: Secobarbital (seconal) spin immunoassay.
The next series relates to Amphetamine antibody. As to the kind of experiment: Amphetamine spin immunoassay. The series is classed as binding, rabbit. The following applies: for mobilization with urine of individuals who indicated taking cross reacting substances: six of 100 urines, background 10% or less. The method, then:
Two plastic cups were employed. In one cup was 2.5 μl of 0.2 M sodium dichromate. In the other cup was 5.0 μl of antibody solution. The sample was transferred employing a 25 μl Oxford Sampler and introduced into the cup containing dichromate. The dichromate sample solution was agitated by means of the sample, drawn up with the sampler and introduced into the cup containing antibody, without touching the antibody. To the resulting solution was then added 5 μl of spin label, the sample was then stirred with an ESR capillary tube, the sample allowed to rise into the capillary and the spectrum read.

A further series concerns antibody (cocaine assay). The series is classed as binding, rabbit. Conditions: read from graph.
The next series deals with morphine antibody. As to the kind of experiment: Detection of morphine and its metabolite in urine by spin immunoassay (ESR). It counts as binding, rabbit.
The next series has as its system morphine antibodies. As to the kind of experiment: Morphine spin immunoassay (ESR), specificity. Conditions: spin label of Example 2.1.
Series [3] relates to antibody (methadone assay). It counts as binding, rabbit. The following applies: 3.4 μg/ml.
Protocol: The spin immunoassay was carried out similarly to the prior assays. Two plastic cups were employed, one cup containing 5 μl of 0.2 molar sodium dichromate and the second 5 μl of borate buffered antibody at pH 8. […] To the dichromate is added 50 μl of sample and a 20 μl aliquot is transferred from the first cup to the second cup containing the antibody solution.
Fifty-five urine samples were tested according to the above procedure.
[4] abbreviates: urine samples 6-10 of drug takers, percentage of maximum increase with high concentrations of morphine, drug taken.

Where “and” joins values, the source holds several entries; their conditions need not be identical. Equal entries are not always repeated. Structures can show the parent of a compound that is named as a salt. Where two headings read alike, the source gives them in different places.

`CN1CC[C@]23c4c5ccc(OCC(=O)NC6CC(C)(C)N([O])C(C)(C)C6)c4O[C@H]2[C@@H](O)C=C[C@H]3[C@H]1C5` [Example 2.2, 4-[2'(O^3" Morphino)acetamido]-2,2,6,6-tetramethylpiperidino-1-oxyl]: the “binding of the free radical labeled morphine to the receptor (ESR signals)” value in series [1] was “broad ESR signals indicating the binding of the free radical labeled morphine to the receptor”.

In the case of `COC(=O)[C@H]1[C@@H](OC(=O)c2ccc(NC(=O)C3CC(C)(C)N([O])C3(C)C)cc2)C[C@@H]2CC[C@H]1N2C` (some centres unmarked) [Example 7.1], in [2], the “binding constant on storage of the spin label” value is “the binding constant diminished with time unless the spin label was stored at pH 5 in the absence of any buffer”.

Take `NC(CCCCNc1ccc([N+](=O)[O-])cc1[N+](=O)[O-])C(=O)O` (centres unmarked) [N-epsilon-dinitrophenyllysine]: in the series on dinitrophenyl antibodies, the “ESR signal on addition to antibodies-labeled hapten complex” value was “an increase in the ESR signal was observed”.

As to `CCC1(CCC(C)C)C(=O)NC(=O)NC1=O` [amobarbital], the “% Mobilization” value in the series on phenobarbital antibody came out at 16%. Moreover, the “minimum concentration that could be detected” value in the series with secobarbital antibody was 2.5 µg/mL.

In the case of `CC(N)Cc1ccccc1` (centres unmarked) [amphetamine.HCl], in the series on Amphetamine antibody (1.7 μg/ml (1.1 × 10^-5 M)), the “% Mobilization” value is on record as 26%.

On to `CC(N)Cc1ccccc1` (centres unmarked) [amphetamine], for which, in the series with Amphetamine antibody, the “recognition by the amphetamine antibody” value is listed as “recognizes” and the “mobilization with urine of individuals who indicated taking cross reacting substances” value (“mobilization with urine” below) is reported as “greater than 14%”. Further, the “peak ratio (amphetamine/saline)” value in the series on Amphetamine antibody (10^-3 molar amphetamine, loading ratio 0.95) worked out at 5.

With `CC(Cc1ccccc1)N(C)Cc1ccccc1` (centres unmarked) [benzophetamine.HCl], the “% Mobilization” value in the series with Amphetamine antibody (2.5 μg/ml (0.8-2.1 × 10^-5 M)) was found to be 12%.

As for `COC(=O)[C@H]1[C@@H](OC(=O)c2ccccc2)C[C@@H]2CC[C@H]1N2C` [cocaine], the “% Mobilization” value in the series with antibody (cocaine assay) (1 μg/ml) came out at 49%; in the series with antibody (cocaine assay) (10 μg/ml), 80%.

Regarding `COc1ccc2c3c1O[C@H]1[C@@H](O)C=C[C@H]4[C@@H](C2)N(C)CC[C@@]341` [codeine], in the series with morphine antibody (setting [4]), the “% Signal Increase” value is 75% and 62%. For the same compound, the “detection by the morphine assay” value with morphine antibodies was “detected by the same procedure”.

As for `COc1ccc2c(c1)[C@]13CCCC[C@@H]1[C@H](C2)N(C)CC3` [dextromethorphan], the “% Mobilization” value with antibody (cocaine assay) (10 μg/ml) is on record as 33%.

On to `CCC1(c2ccccc2)CCC(=O)NC1=O` (centres unmarked) [glutethimide], for which the “% Mobilization” value in the series on phenobarbital antibody amounted to 0.5%.

With `CC(=O)Oc1ccc2c3c1O[C@H]1[C@@H](OC(C)=O)C=C[C@H]4[C@@H](C2)N(C)CC[C@@]341` [heroin], the “% Signal Increase” value is recorded as 57% with morphine antibody (urine of single heroin user, day 2, drug taken on second and fifth days); 32% in the series on morphine antibody (urine of single heroin user, day 3, drug taken on second and fifth days); 26% with morphine antibody (urine of single heroin user, day 4, drug taken on second and fifth days); 47% in the series with morphine antibody (urine of single heroin user, day 5, drug taken on second and fifth days); 26% in the series on morphine antibody (urine of single heroin user, day 6, drug taken on second and fifth days); 16% in the series with morphine antibody (urine of single heroin user, day 7, drug taken on second and fifth days). Also, the “% Signal Increase” value with morphine antibody (urine of single heroin user, day 8, drug taken on second and fifth days) was 8%; in the series with morphine antibody (urine of single heroin user, day 9, drug taken on second and fifth days), 40%; with morphine antibody (setting [4]) it was 81% and 100%.

Turning to `CNC(C)(C)Cc1ccccc1` [mephentermine.H2 SO4], in the series with Amphetamine antibody (2.5 μg/ml (0.8-2.1 × 10^-5 M)), the “% Mobilization” value is reported as 28%.

Consider `CNC(C)(C)Cc1ccccc1` [mephentermine], for which the “recognition by the amphetamine antibody” value with Amphetamine antibody was “recognizes”. Also, in the series on antibody (cocaine assay) (10 μg/ml), the “% Mobilization” value amounted to 35%.

For `CCC1(c2ccccc2)C(=O)NC(=O)N(C)C1=O` (centres unmarked) [mephobarbital], in the series on phenobarbital antibody, the “% Mobilization” value is on record as 32%.

Take `COc1cc(CCN)cc(OC)c1OC` [mescaline]: in the series on Amphetamine antibody, the “mobilization with urine” value is reported as “greater than 14%”.

As for `CCC(=O)C(CC(C)N(C)C)(c1ccccc1)c1ccccc1` (centres unmarked) [methadone], in the series with morphine antibodies, the “detection by the morphine assay” value is “insensitive”.

For `CNC(C)Cc1ccccc1` (centres unmarked) [methamphetamine.HCl], in the series on Amphetamine antibody (2.5 μg/ml (0.8-2.1 × 10^-5 M)), the “% Mobilization” value worked out at 29%.

`CN[C@@H](C)Cc1ccccc1` [methamphetamine]: the “recognition by the amphetamine antibody” value in the series on Amphetamine antibody was “recognizes”.

Regarding `CCC1(CC)C(=O)NC(=O)N(C)C1=O` [metharbital], the “% Mobilization” value in the series with phenobarbital antibody stood at 6%.

As to `CN1CC[C@]23c4c5ccc(O[C@@H]6O[C@H](C(=O)O)[C@@H](O)[C@H](O)[C@H]6O)c4O[C@H]2[C@@H](O)C=C[C@H]3[C@H]1C5` [morphine-O^3 -glucuronide], the “detection by the morphine assay” value in the series on morphine antibodies was “can also be detected”.

Turning to `C=CCN1CC[C@]23c4c5ccc(O)c4O[C@H]2[C@@H](O)C=C[C@H]3[C@H]1C5` [nalorphine], the “detection by the morphine assay” value with morphine antibodies is reported as “can also be detected”.

Consider `CCCC(C)C1(CC)C(=O)NC(=O)NC1=O` (centres unmarked) [pentobarbital], for which the “minimum concentration that could be detected” value in the series on secobarbital antibody turned out to be 2 µg/mL.

For `NCCc1ccccc1` [phenethylamine], the “% Mobilization” value with Amphetamine antibody (2.5 μg/ml (0.8-2.1 × 10^-5 M)) is 26%.

As for `CCC1(c2ccccc2)C(=O)NC(=O)NC1=O` [phenobarbital], the “% Mobilization” value in the series on phenobarbital antibody was found to be 25%.

On to `CC(N)C(O)c1ccccc1` (centres unmarked) [phenylpropanolamine.HCl], for which the “% Mobilization” value in the series with Amphetamine antibody (2.5 μg/ml (0.8-2.1 × 10^-5 M)) is given as 13%.

In the case of `CC(N)C(O)c1ccccc1` (centres unmarked) [phenylpropanolamine], the “mobilization with urine” value in the series on Amphetamine antibody is “greater than 14%”. In addition, the “% Mobilization” value in the series on antibody (cocaine assay) (10 μg/ml) is 26%.

`CNC(C)CC1CCCCC1` (centres unmarked) [propylhexedrine.HCl]: the “% Mobilization” value with Amphetamine antibody (250 μg/ml (131 × 10^-5 M)) worked out at 71%.

Turning to `CN[C@@H](C)[C@@H](O)c1ccccc1` [pseudophedrine], the “mobilization with urine” value in the series with Amphetamine antibody is “greater than 14%”.

For `C=CCC1(C(C)CCC)C(=O)NC(=O)NC1=O` (centres unmarked) [secobarbital], the “% Mobilization” value in the series with phenobarbital antibody is listed as 7%. Also, the “sensitivity of the assay” value in the series on secobarbital antibody is “the greatest sensitivity is achieved with secobarbital”.

As for `CCCC(C)C1(CC)C(=O)NC(=O)NC1=O` (centres unmarked) [sodium pentobarbital], the “% Mobilization” value in the series with phenobarbital antibody was determined as 10%.

As for `CCC1(c2ccccc2)C(=O)NC(=O)NC1=O` [sodium phenobarbital], in the series with secobarbital antibody, the “minimum concentration that could be detected” value was 40 µg/mL.

`CCCC(C)C1(CC)C(=O)NC(=S)NC1=O` (centres unmarked) [thiopental sodium]: in the series on secobarbital antibody, the “minimum concentration that could be detected” value came out at 3.5 µg/mL.

Regarding `CN(C)CCCN1c2ccccc2Sc2ccc(Cl)cc21` [thorazine], the “% Mobilization” value in [3] came to 9%.

(Values after patent US3966744A, “Spin labeled compounds” (priority 1974, dated 1976).)
